Measurements published in patent publication US3961054A, “Combatting dandruff with mercapto quinoline N-oxides” (Ciba-Geigy Corporation, priority 1974, dated 1976).
≈ marks a conversion by molar mass, not a printed value. Where “and” joins values, the source holds several entries; their conditions need not be identical. Equal values may be shown once. Where a name gives a salt, the structure may show the parent alone. Read-outs that look alike come from different tables or passages of the source.

Legend:
P. Ovale [1] = assay: Microbiological activity against P. Ovale, agar serial dilution (Table 1); assay type: cell-based, P. Ovale (ATCC 14521); settings: for MIC: 96 h, read-out: Minimum Inhibitory Concentration (MIC) against P. Ovale
Protocol: The microbiological activities of the zinc and sodium complexes of 2-mercapto-quinoline-N-oxide (MQNO) against P. Ovale were compared with the sodium and zinc salts of pyridinethione-N-oxide (PTO) and other conventional soapbacteriostats. P. Ovale is a microorganism associated with dandruff conditions.
Equal amounts of the respective compounds were dissolved in methyl cellosolve, dimethylformamide, or water, serially diluted in ten fold sequence and incorporated into plates of molten Agar. The plates were allowed to solidify, were then inoculated with P. Ovale (ATCC 14521), incubated at 27°C. for 4 days and inspected for growth.

P. Ovale [2] = assay: Substantivity/activity in calf skin, zone of inhibition against P. Ovale (Table 2); assay type: cell-based; parameters: unit not given here; settings: 2% in shampoo, replicate plates 1-4, 27°C, 4 days
Description: The substantivity/activity of the zinc complex of 2-mercapto-quinoline-N-oxide of the invention in calf-skin were compared with the zinc salt of pyridinethione-N-oxide in the following manner. ZnMQNO and ZnPTO were incorporated by blending on a 3-roll mill in amounts of 1% and 2% by weight into a non-bacteriostatic paste shampoo of the following composition.
Calf skin specially prepared by the method of Vinson IN VITRO TESTS FOR MEASURING ANTIBACTERIAL ACTIVITY OF TOILET SOAP AND DETERGENT BARS by L. J. Vinson, E. L. Ambye, A. G. Bennet, Journal of Pharmaceutical Sciences, Vol. 50, P. 10, October, 1961.
0.3 g of shampoo was applied in each instance to 12.5 sq. in. of calf skin (equivalent to […] of shampoo per 90.2 sq. in. of human scalp) and a rich lather worked up for 2 minutes. The calf skin was then rinsed in running tap water for 30 seconds with vigorous message to remove all lather. The moist skin was then given a second lather identical to the first and again rinsed as before. After air drying, the calf skins were cut into 2.1 cm discs and placed on agar inoculated with P. Ovale. After 4 days incubation at 27°C, the zones of inhibition size were recorded.

T. interdigitale = assay: Antimicrobial spectrum, MIC, T. interdigitale (Table 3); assay type: cell-based, Trichophyton interdigitale ATCC 9533; settings: Trichophyton interdigitale, ATCC9533, read-out: Minimum Inhibitory Concentration, T. interdigitale
Protocol: (§1) Equivalent amounts of ZnMQNO, NaMQNO, ZnPTO and NaPTO were solubilized in methyl cellosolve (PTO) and dimethyl formamide (MQNO). Ten fold serial dilutions were prepared employing additional solvent and equal aliquots pipetted into molten (50°C) agar support media. Nutrient Agar was employed for all bacteria and Mycological Agar was employed for the fungi and dermatophyte. After preparing pour plates for the bacteria and streaks for the fungi and dermatophyte, the plates were incubated (37°C and 27°C, respectively) and observed for growth.

[3] = Relative solubility (statement in words); assay type: physicochemical; settings: explains smaller zone size in agar
Staph. aureus = assay: Antimicrobial spectrum, MIC, Staph. aureus (Table 3); assay type: cell-based, Staph. aureus ATCC 6538; settings: Staphylococcus aureus
Protocol: as §1

Aspergillus oryzae = assay: Antimicrobial spectrum, MIC, Aspergillus oryzae (Table 3); assay type: cell-based, Aspergillus oryzae ATCC 10196; settings: for MIC: Aspergillus oryzae
Protocol: as §1

[4] = tested on: Gram-positive and negative bacteria, fungi and dermatophytes; assay: Antimicrobial spectrum, overall (Example 8); assay type: cell-based; settings: in words, from Table 3
Protocol: as §1

dandruff = settings: in words; background; cited from earlier work
Proteus vulgaris = assay: Antimicrobial spectrum, MIC, Proteus vulgaris (Table 3); assay type: cell-based; settings: ATCC9920, ATCC 9920, Nutrient Agar, 37°C, ten fold dilutions, read-out: Minimum Inhibitory Concentration, Proteus vulgaris
Protocol: as §1

[5] = Pityrosporum ovale, agar, 27°C, 4 days

For `O=C(Nc1ccc(Br)cc1)c1cc(Br)cc(Br)c1O` [Tribromo salicyanilide], the “Minimum Inhibitory Concentration (MIC) against P. Ovale” value (P. Ovale [1]; agar, 27°C, 4 days) was 1000 PPM.
In the case of “m-alkyl-dimethyl-ethyl-benzyl ammonium chloride”, the “Minimum Inhibitory Concentration (MIC) against P. Ovale” value (P. Ovale [1]; agar, 27°C, 4 days) was > 1000 PPM.
Work on `O=c1[nH]c2cc(Cl)c(Br)cc2o1` [5-chloro-6-bromobenzoxazo-linone] yielded an MIC (P. Ovale [1]; [5]) of 1000 µg/mL (≈ 4.02 mM).
In the case of “Sodium salt of sulphosuccinate of undecylenic-monoalkylolamide”, the “Minimum Inhibitory Concentration (MIC) against P. Ovale” value (P. Ovale [1]; agar, 27°C, 4 days) was > 1000 PPM.
In the case of `[O-][n+]1c(S)ccc2ccccc21.[Zn]` [Zn MQNO, Zinc 2-mercaptoquinoline-N-oxide], the “Zone of Inhibition Against P. Ovale - Calf Skin, 1 Application” value (P. Ovale [2]; listed as MONO) was 0.5 and 1.5 and 1.0, the “Zone of Inhibition Against P. Ovale - Calf Skin, 2 Applications” value (P. Ovale [2]; listed as MONO) was 2.0 and 4.5 and 2.5 and the MIC (T. interdigitale) was 10100 µg/mL. The “solubility relative to ZnPTO” value [3] was “less soluble than ZnPTO”.
For “N-alkyl-dimethyl-ethyl-benzyl ammonium cyclohexyl sulfamate”, the “Minimum Inhibitory Concentration (MIC) against P. Ovale” value (P. Ovale [1]; agar, 27°C, 4 days) was > 1000 PPM.
For `Oc1cccc2cccnc12` [8-Hydroxyquinoline], the MIC (P. Ovale [1]) was 100 µg/mL (≈ 0.689 mM).
`C=CCCCCCCCCC(=O)O` [Undecylenic acid] gave an MIC (P. Ovale [1]) of 1000 µg/mL (≈ 5.43 mM).
In the case of Undecen-1-ol, the “Minimum Inhibitory Concentration (MIC) against P. Ovale” value (P. Ovale [1]; agar, 27°C, 4 days) was > 1000 PPM.
With `[O-][n+]1ccccc1S` [Na PTO, sodium salt of pyridinethione-N-oxide] the MIC (P. Ovale [1]) was 7 to 10 µg/mL, the MIC (Staph. aureus; ATCC6538, read-out: Minimum Inhibitory Concentration, Staph. aureus) was 0.1 µg/mL and the MIC (Aspergillus oryzae; ATCC10196, read-out: Minimum Inhibitory Concentration, Aspergillus oryzae) was 10100 µg/mL. The antimicrobial spectrum [4] was “broad-spectrum antimicrobial agents showing good activity at low concentrations against Gram-positive and negative bacteria, fungi and dermatophytes”.
With `Cc1cc(O)cc(C)c1Cl` [P-chloro-m-xylenol] the MIC (P. Ovale [1]; [5]) was 1000 µg/mL (≈ 6.39 mM).
In the case of `[S]` [elemental sulfur], the “anti-dandruff activity (prior art agents)” value (dandruff) is listed as “extremely effective in the control of dandruff”.
For `[O-][n+]1ccccc1[S-].[O-][n+]1ccccc1[S-].[Zn+2]` [Zn PTO, zinc salt of pyridinethione-N-oxide], the “Minimum Inhibitory Concentration (MIC) against P. Ovale” value (P. Ovale [1]; agar, 27°C, 4 days) was 7-10 PPM, the “Zone of Inhibition Against P. Ovale - Calf Skin, 1 Application” value (P. Ovale [2]; listed as Zinc PTO) was 4.5 and 4.0 and 5.0 and the “Zone of Inhibition Against P. Ovale - Calf Skin, 2 Applications” value (P. Ovale [2]; listed as Zinc PTO) was 10.0 and 7.0 and 5.0. The “Minimum Inhibitory Concentration, Aspergillus oryzae” value (Aspergillus oryzae; ATCC 10196, Mycological Agar, 27°C, ten fold dilutions) was 10 100 PPM and the antimicrobial spectrum [4] was “broad-spectrum antimicrobial agents showing good activity at low concentrations against Gram-positive and negative bacteria, fungi and dermatophytes”.
In the case of `Sc1ccccn1` [2-mercaptopyridine], the MIC (P. Ovale [1]; [5]) was > 1000 µg/mL.
With `Oc1c(Cl)cc(Cl)c(Cl)c1Cc1c(O)c(Cl)cc(Cl)c1Cl` [Hexachlorophene] the MIC (P. Ovale [1]) was > 1000 µg/mL.
`[O-][n+]1c(S)ccc2ccccc21` [Na MQNO, Sodium Complex Of 2-Mercapto-Quinoline-N-Oxide] showed an MIC (P. Ovale [1]; [5]) of 50 to 60 µg/mL, an MIC (Staph. aureus; ATCC6538, ATCC 6538, Nutrient Agar, 37°C, ten fold dilutions, read-out: Minimum Inhibitory Concentration, Staph. aureus) of 0.1 µg/mL and an MIC (Proteus vulgaris) of 0.1 µg/mL. The MIC (Aspergillus oryzae; ATCC10196, ATCC 10196, Mycological Agar, 27°C, ten fold dilutions, read-out: Minimum Inhibitory Concentration, Aspergillus oryzae) was 10100 µg/mL.
In the case of `Oc1ccc(Cl)cc1Sc1cc(Cl)ccc1O` [2,2'-dihydroxy-5.5'-dichlorodiphenyl monosulfide], the MIC (P. Ovale [1]) was > 1000 µg/mL.
For `Oc1c(I)cc(I)c2cccnc12` [Diiodohydroxyquinoline], the MIC (P. Ovale [1]; [5]) was 1000 µg/mL (≈ 2.52 mM).
With `O=C(Nc1ccc(Cl)cc1)c1cc(Cl)cc(Cl)c1O` [Trichloro salicyanilide] the “Minimum Inhibitory Concentration (MIC) against P. Ovale” value (P. Ovale [1]; agar, 27°C, 4 days) was > 1000 PPM.
For “N-alkyl-dimethyl-benzyl ammonium chloride”, the “Minimum Inhibitory Concentration (MIC) against P. Ovale” value (P. Ovale [1]; agar, 27°C, 4 days) was > 1000 PPM.
With `O=C(Nc1ccc(Cl)cc1)Nc1ccc(Cl)c(Cl)c1` [Trichlorocarbanilide] the “Minimum Inhibitory Concentration (MIC) against P. Ovale” value (P. Ovale [1]; agar, 27°C, 4 days) was > 1000 PPM.
With `O=C(Nc1ccc(Cl)c(Cl)c1)c1cc(Cl)cc(Cl)c1O` [Tetrachloro salicyanilide] the “Minimum Inhibitory Concentration (MIC) against P. Ovale” value (P. Ovale [1]; agar, 27°C, 4 days) was 1000 PPM.
For `Sc1ccc2ccccc2n1` [2-mercaptoquinoline], the MIC (P. Ovale [1]; [5]) was > 1000 µg/mL.
With `Oc1c(Cl)cc(Cl)cc1Sc1cc(Cl)cc(Cl)c1O` [Thio bis(dichlorophenol)] the “Minimum Inhibitory Concentration (MIC) against P. Ovale” value (P. Ovale [1]; agar, 27°C, 4 days) was > 1000 PPM.
